Assay results from US20230081426A1, “COMPOUNDS AND METHODS FOR KRAS MODULATION AND INDICATIONS THEREFOR” (Plexxikon Inc., priority 2020, published 2023).

Key:
[1] = molecular target: T1, G12D-mutant human KRAS (amino acid residues 1-188) (Homo sapiens, UniProt P01116, G12D); assay: KRAS Binding Disruption Assay (AlphaScreen; biotinylated KRpep-2d analogue or RAF1-RBD), G12D; conditions: KRAS G12D; geometric mean; read-out: KRAS GMean IC50 (uM) MUTATION: G12D
T1 construct: G12D or G12C-mutant human KRAS (amino acid residues 1-188) with FLAG tag; made in house; host or cells: E. coli
Procedure, shortened: (§1)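 Displacement format with mutant KRAS, biotinylated KRpep-2d analogue or RAF1-RBD (5-20 nM each) at pH 7.5 with 5 mM MgCl2.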

[2] = molecular target: T2, G12C-mutant human KRAS (amino acid residues 1-188) (Homo sapiens, UniProt P01116, G12C); assay: KRAS Binding Disruption Assay (AlphaScreen; biotinylated KRpep-2d analogue or RAF1-RBD), G12C; conditions: geometric mean, read-out: KRAS GMean IC50 (uM) MUTATION: G12C
T2 construct: G12D or G12C-mutant human KRAS (amino acid residues 1-188) with FLAG tag; made in house; host or cells: E. coli
Procedure, shortened: as §1

T2 sequence (P01116 1-188 isoform P01116-2 G12C): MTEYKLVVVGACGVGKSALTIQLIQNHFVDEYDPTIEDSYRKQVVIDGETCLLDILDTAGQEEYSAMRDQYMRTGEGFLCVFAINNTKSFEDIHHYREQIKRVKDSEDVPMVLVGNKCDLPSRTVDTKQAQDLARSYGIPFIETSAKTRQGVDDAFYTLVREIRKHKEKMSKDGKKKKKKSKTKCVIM
T1 sequence (P01116 1-188 isoform P01116-2 G12D): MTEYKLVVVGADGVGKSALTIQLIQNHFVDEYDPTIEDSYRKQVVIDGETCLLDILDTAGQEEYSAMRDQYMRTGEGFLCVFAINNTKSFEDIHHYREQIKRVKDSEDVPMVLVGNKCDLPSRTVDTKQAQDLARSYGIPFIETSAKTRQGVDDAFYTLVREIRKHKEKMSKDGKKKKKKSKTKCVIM

| Compound | IC50 [1] | IC50 [2] |
| --- | --- | --- |
| CN1CCC[C@H]1COc1nc(N2C[C@H]3CC[C@@H](C2)N3)c2cc(F)c(-c3n[nH]c4ccccc34)c(F)c2n1 [P-0725, 4-((1R,5S)-3,8-diazabicyclo[3.2.1]octan-3-yl)-6,8-difluoro-7-(1H-indazol-3-yl)-2-(((S)-1-methylpyrrolidin-2-yl)methoxy)quinazoline] | 10 to 100 µM | 100 to 1000 µM |
| Oc1cc(-c2ccc3c(N4C[C@H]5CC[C@@H](C4)N5)nc(OCC4CCCCC4)nc3c2F)c2ccccc2c1 [P-0779, 4-(4-((1R,5S)-3,8-diazabicyclo[3.2.1]octan-3-yl)-2-(cyclohexylmethoxy)-8-fluoroquinazolin-7-yl)naphthalen-2-ol] | 0.0001 to 10 µM | 10 to 100 µM |
| CN1CCC[C@H]1COc1nc(N2C[C@H]3CC[C@@H](C2)N3)c2ccc(-c3nccc4ccc(F)cc34)c(F)c2n1 [P-0781, 4-((1R,5S)-3,8-diazabicyclo[3.2.1]octan-3-yl)-8-fluoro-7-(7-fluoroisoquinolin-1-yl)-2-(((S)-1-methylpyrrolidin-2-yl)methoxy)quinazoline] | 10 to 100 µM | 100 to 1000 µM |
| CN1CCC[C@H]1COc1nc(N2C[C@H]3CC[C@@H](C2)N3)c2cc(F)c(-c3c[nH]c4cc(F)ccc34)c(F)c2n1 [P-0759, 4-((1R,5S)-3,8-diazabicyclo[3.2.1]octan-3-yl)-6,8-difluoro-7-(6-fluoro-1H-indol-3-yl)-2-(((S)-1-methylpyrrolidin-2-yl)methoxy)quinazoline] | 0.0001 to 10 µM | 10 to 100 µM |
| CN1CCC[C@H]1COc1nc(N2C[C@H]3CC[C@@H](C2)N3)c2cc(F)c(-c3c[nH]c4c(Cl)cccc34)c(F)c2n1 [P-0800, 4-((1R,5S)-3,8-diazabicyclo[3.2.1]octan-3-yl)-7-(7-chloro-1H-indol-3-yl)-6,8-difluoro-2-(((S)-1-methylpyrrolidin-2-yl)methoxy)quinazoline] | 10 to 100 µM | 100 to 1000 µM |
| CC(CN)Oc1nc(N2C[C@H]3CC[C@@H](C2)N3)c2ccc(-c3cc(O)cc4ccccc34)cc2n1 (stereo partly drawn) [P-0062, 4-(2-((1-aminopropan-2-yl)oxy)-4-((1R,5S)-3,8-diazabicyclo[3.2.1]octan-3-yl)quinazolin-7-yl)naphthalen-2-ol] | 0.0001 to 10 µM | 10 to 100 µM |
| CC(=O)NCCOc1nc(N2C[C@H]3CC[C@@H](C2)N3)c2ccc(-c3cc(O)cc4ccccc34)c(F)c2n1 [P-0692, N-(2-((4-((1R,5S)-3,8-diazabicyclo[3.2.1]octan-3-yl)-8-fluoro-7-(3-hydroxynaphthalen-1-yl)quinazolin-2-yl)oxy)ethyl)acetamide] | 0.0001 to 10 µM | 10 to 100 µM |
| O=C(O)COc1nc(N2C[C@H]3CC[C@@H](C2)N3)c2ccc(-c3cc(O)cc4ccccc34)c(F)c2n1 [P-0745, 2-((4-((1R,5S)-3,8-diazabicyclo[3.2.1]octan-3-yl)-8-fluoro-7-(3-hydroxynaphthalen-1-yl)quinazolin-2-yl)oxy)acetic acid] | 0.0001 to 10 µM | 10 to 100 µM |
| O=C1CCC(COc2nc(N3C[C@H]4CC[C@@H](C3)N4)c3ccc(-c4cc(O)cc5ccccc45)c(F)c3n2)N1 (stereo partly drawn) [P-0802, 5-(((4-((1R,5S)-3,8-diazabicyclo[3.2.1]octan-3-yl)-8-fluoro-7-(3-hydroxynaphthalen-1-yl)quinazolin-2-yl)oxy)methyl)pyrrolidin-2-one] | 0.0001 to 10 µM | 10 to 100 µM |
| COC(=O)C(C)(C)COc1nc(N2C[C@H]3CC[C@@H](C2)N3)c2ccc(-c3cc(O)cc4ccccc34)c(F)c2n1 [P-0648, methyl 3-((4-((1R,5S)-3,8-diazabicyclo[3.2.1]octan-3-yl)-8-fluoro-7-(3-hydroxynaphthalen-1-yl)quinazolin-2-yl)oxy)-2,2-dimethylpropanoate] | 0.0001 to 10 µM | 10 to 100 µM |
| Oc1cc(-c2ccc3c(N4C[C@H]5CC[C@@H](C4)N5)nc(OCC4CC(O)C4)nc3c2F)c2ccccc2c1 (stereo partly drawn) [P-0650, 4-(4-((1R,5S)-3,8-diazabicyclo[3.2.1]octan-3-yl)-8-fluoro-2-((3-hydroxycyclobutyl)methoxy)quinazolin-7-yl)naphthalen-2-ol] | 0.0001 to 10 µM | 0.0001 to 10 µM |
| CN1CCC2CN(c3nc(N4C[C@H]5CC[C@@H](C4)N5)c4ccc(-c5cc(O)cc6ccccc56)c(F)c4n3)CC21 (stereo partly drawn) [P-0705, 4-(4-((1R,5S)-3,8-diazabicyclo[3.2.1]octan-3-yl)-8-fluoro-2-(1-methylhexahydropyrrolo[3,4-b]pyrrol-5(1H)-yl)quinazolin-7-yl)naphthalen-2-ol] | 0.0001 to 10 µM | 10 to 100 µM |
| Oc1cc(-c2ccc3c(N4C[C@H]5CC[C@@H](C4)N5)nc(OCC4CC(F)(F)C4)nc3c2F)c2ccccc2c1 [P-0778, 4-(4-((1R,5S)-3,8-diazabicyclo[3.2.1]octan-3-yl)-2-((3,3-difluorocyclobutyl)methoxy)-8-fluoroquinazolin-7-yl)naphthalen-2-ol] | 0.0001 to 10 µM | 10 to 100 µM |
| CN1CCC[C@H]1COc1nc(N2C[C@H]3CC[C@@H](C2)N3)c2cc(F)c(-c3c[nH]c4ncccc34)c(F)c2n1 [P-0780, 4-((1R,5S)-3,8-diazabicyclo[3.2.1]octan-3-yl)-6,8-difluoro-2-(((S)-1-methylpyrrolidin-2-yl)methoxy)-7-(1H-pyrrolo[2,3-b]pyridin-3-yl)quinazoline] | 10 to 100 µM | 100 to 1000 µM |
| CN(C)C1CN(c2nc(N3C[C@H]4CC[C@@H](C3)N4)c3ccc(-c4cc(O)cc5ccccc45)c(F)c3n2)C1 [P-0794, 4-(4-((1R,5S)-3,8-diazabicyclo[3.2.1]octan-3-yl)-2-(3-(dimethylamino)azetidin-1-yl)-8-fluoroquinazolin-7-yl)naphthalen-2-ol] | 0.0001 to 10 µM | 10 to 100 µM |
| Cc1cccc2[nH]nc(-c3ccc4c(N5C[C@H]6CC[C@@H](C5)N6)nc(OC[C@@H]5CCCN5C)nc4c3F)c12 [P-0712, 4-((1R,5S)-3,8-diazabicyclo[3.2.1]octan-3-yl)-8-fluoro-7-(4-methyl-1H-indazol-3-yl)-2-(((S)-1-methylpyrrolidin-2-yl)methoxy)quinazoline] | 10 to 100 µM | 10 to 100 µM |

The remaining lines, values ahead:

| IC50 [1] | IC50 [2] | Compound |
| --- | --- | --- |
| 0.0001 to 10 µM | 10 to 100 µM | Fc1cc(F)c2[nH]cc(-c3c(F)cc4c(N5C[C@H]6CC[C@@H](C5)N6)nc(OCC56CCCN5CCC6)nc4c3F)c2c1 [P-0747, 4-((1R,5S)-3,8-diazabicyclo[3.2.1]octan-3-yl)-7-(5,7-difluoro-1H-indol-3-yl)-6,8-difluoro-2-((tetrahydro-1H-pyrrolizin-7a(5H)-yl)methoxy)quinazoline] |
| 0.0001 to 10 µM | 0.0001 to 10 µM | Oc1cc(-c2ccc3c(N4C[C@H]5CC[C@@H](C4)N5)nc(OCCN4CCC(F)(F)C4)nc3c2F)c2ccccc2c1 [P-0649, 4-(4-((1R,5S)-3,8-diazabicyclo[3.2.1]octan-3-yl)-2-(2-(3,3-difluoropyrrolidin-1-yl)ethoxy)-8-fluoroquinazolin-7-yl)naphthalen-2-ol] |
| 0.0001 to 10 µM | 10 to 100 µM | CN1CCC[C@H]1COc1nc(N2C[C@H]3CC[C@@H](C2)N3)c2ccc(-c3cc(N)nc4ccccc34)c(F)c2n1 [P-0760, 4-(4-((1R,5S)-3,8-diazabicyclo[3.2.1]octan-3-yl)-8-fluoro-2-(((S)-1-methylpyrrolidin-2-yl)methoxy)quinazolin-7-yl)quinolin-2-amine] |
| 0.0001 to 10 µM | 10 to 100 µM | Oc1cc(-c2ccc3c(N4C[C@H]5CC[C@@H](C4)N5)nc(OCC4CCC4)nc3c2F)c2ccccc2c1 [P-0750, 4-(4-((1R,5S)-3,8-diazabicyclo[3.2.1]octan-3-yl)-2-(cyclobutylmethoxy)-8-fluoroquinazolin-7-yl)naphthalen-2-ol] |
| 0.0001 to 10 µM | 0.0001 to 10 µM | CCc1cccc2[nH]cc(-c3ccc4c(N5C[C@H]6CC[C@@H](C5)N6)nc(OCC56CCCN5CCC6)nc4c3F)c12 [P-0699, 4-((1R,5S)-3,8-diazabicyclo[3.2.1]octan-3-yl)-7-(4-ethyl-1H-indol-3-yl)-8-fluoro-2-((tetrahydro-1H-pyrrolizin-7a(5H)-yl)methoxy)quinazoline] |
| 0.0001 to 10 µM | 10 to 100 µM | CN(C)C1(C(N)=O)CN(c2nc(N3C[C@H]4CC[C@@H](C3)N4)c3ccc(-c4cc(O)cc5ccccc45)c(F)c3n2)C1 [P-0640, 1-(4-((1R,5S)-3,8-diazabicyclo[3.2.1]octan-3-yl)-8-fluoro-7-(3-hydroxynaphthalen-1-yl)quinazolin-2-yl)-3-(dimethylamino)azetidine-3-carboxamide] |
| 0.0001 to 10 µM | 10 to 100 µM | Oc1cc(-c2ccc3c(N4C[C@H]5CC[C@@H](C4)N5)nc(OCCn4cccn4)nc3c2F)c2ccccc2c1 [P-0690, 4-(2-(2-(1H-pyrazol-1-yl)ethoxy)-4-((1R,5S)-3,8-diazabicyclo[3.2.1]octan-3-yl)-8-fluoroquinazolin-7-yl)naphthalen-2-ol] |
| 0.0001 to 10 µM | 0.0001 to 10 µM | NC(=O)CCN1[C@@H]2CC[C@H]1CN(c1nc(OCC34CCCN3CCC4)nc3c(F)c(-c4cc(O)cc5ccccc45)ccc13)C2 [P-0642, 3-((1R,5S)-3-(8-fluoro-7-(3-hydroxynaphthalen-1-yl)-2-((tetrahydro-1H-pyrrolizin-7a(5H)-yl)methoxy)quinazolin-4-yl)-3,8-diazabicyclo[3.2.1]octan-8-yl)propanamide] |
| 0.0001 to 10 µM | 0.0001 to 10 µM | N#Cc1cccc2[nH]cc(-c3ccc4c(N5C[C@H]6CC[C@@H](C5)N6)nc(OCC56CCCN5CCC6)nc4c3F)c12 [P-0666, 3-(4-((1R,5S)-3,8-diazabicyclo[3.2.1]octan-3-yl)-8-fluoro-2-((tetrahydro-1H-pyrrolizin-7a(5H)-yl)methoxy)quinazolin-7-yl)-1H-indole-4-carbonitrile] |
